In data set [1] the test system is recombinant NL4-3 virus (Renilla luciferase in nef) in MT-2 cells. Kind of data set: whole plant or invertebrate. The class given is cell-based, HIV. The settings on record: luciferase activity. As to the method:
HIV cell culture assay—MT-2 cells, 293T cells and the proviral DNA clone of NL4-3 virus were obtained from the NIH AIDS Research and Reference Reagent Program. MT-2 cells were propagated in RPMI 1640 media supplemented with 10% heat inactivated fetal bovine serum (FBS), 100 μg/ml penicillin G and up to 100 units/mL streptomycin. The 293T cells were propagated in DMEM media supplemented with 10% heat inactivated FBS, 100 μg/mL penicillin G and 100 μg/mL streptomycin. A recombinant NL4-3 proviral clone, in which a section of the nef gene was replaced with the Renilla luciferase gene, was used to make the reference virus used in these studies. The recombinant virus was prepared through transfection of the recombinant NL4-3 proviral clone into 293T cells using Transit-293 Transfection Reagent from Mirus Bio LLC (Madison, Wis.). Supernatent was harvested after 2-3 days and the amount of virus present was titered in MT-2 cells using luciferase enzyme activity as a marker by measuring luciferase enzyme activity. Luciferase was quantitated using the EnduRen Live Cell Substrate from Promega (Madison, Wis.). Antiviral activities of compounds toward the recombinant virus were quantified by measuring luciferase activity in MT-2 cells infected for 4-5 days with the recombinant virus in the presence of serial dilutions of the compound.
(Johnson V A, Byington R T. Infectivity Assay. In Techniques in HIV Research. ed. Aldovini A, Walker BD. 71-76. New York: Stockton Press.1990).

A short description of data set [2]: Compound cytotoxicity, XTT-based colorimetric assay. To be noted: human, uninfected MT2 cells, day 4, XTT. The class given is cell-based. As to the method: Compound cytotoxicity and the corresponding CC50 values were determined using the same protocol as described in the antiviral assay except that uninfected cells were used. Cytotoxicity was assessed on day 4 in uninfected MT2 cells by using a XTT (2,3-bis[2-Methoxy-4-nitro-5-sulfophenyl]-2H-tetrazolium-5-carboxyanilide inner salt)-based colorimetric assay (Sigma-Aldrich, St Louis, Mo.).
In general terms: Formazan colour is commonly taken as a measure of viable cells.

Where [3] appears, read: Renilla, NL43, MT-2 cells infected for 4-5 days with recombinant NL4-3 Renilla luciferase virus.

By EC50 is commonly meant the midpoint of the concentration-response curve. Broadly, the CC50 is the concentration at which the toxic effect on the cells reaches its halfway point. Low values mean greater toxicity to the cells, high ones lower toxicity to the cells. Consider `COc1ccc(N(C)C(=O)[C@H](Cc2ccccc2)NC(=O)Cn2c(=O)n(CC(=O)N[C@@H](Cc3ccccc3)C(=O)N(C)c3ccc(OC)cc3)c3cc(F)ccc32)cc1` [Example 75], for which, in data set [1] (setting [3]), the EC50 was 0.08 µM. In data set [2], the 50% cytotoxic concentration (CC50) at 4 days was 11.5 µM.
Taken in the same sequence, the figures for `CCN(C(=O)[C@H](Cc1cc(F)cc(F)c1)NC(=O)CN1c2ccccc2N(CC(=O)N[C@@H](Cc2cc(F)cc(F)c2)C(=O)N(CC)c2ccc(NC(=O)OC)cc2)S1(=O)=O)c1ccc(NC(=O)OC)cc1` [Example 148] were 0.72 µM and ≥ 100 µM.
In the case of `COc1ccc(N(C)C(=O)[C@H](Cc2cc(F)cc(F)c2)NS(=O)(=O)CS(=O)(=O)N[C@@H](Cc2cc(F)cc(F)c2)C(=O)N(C)c2ccc(OC)cc2)cc1` [Example 201], the concentration for a half-maximal effect (EC50) in data set [1] (setting [3]) turned out to be 0.48 µM. Further, in data set [2], the cytotoxic concentration (CC50) at 4 days was determined as 12.5 µM.
Taken in the same sequence, the figures for `COc1ccc(N(C)C(=O)[C@H](Cc2cc(F)cc(F)c2)NC(=O)CS(=O)(=O)N[C@@H](Cc2cc(F)cc(F)c2)C(=O)N(C)c2ccc(OC)cc2)cc1` [Example 64] were 0.38 µM and 11.3 µM.
Take `C=CCCN(C(=O)[C@H](Cc1cc(F)cc(F)c1)NC(=O)NS(=O)(=O)N[C@@H](Cc1cc(F)cc(F)c1)C(=O)N(CCC=C)c1ccc2scnc2c1)c1ccc2scnc2c1` (single isomer, unassigned) [Example 141]: the half-maximal effective concentration (EC50) in data set [1] (MT-2 cells infected for 4-5 days with recombinant NL4-3 Renilla luciferase virus) is 0.09 µM. The half-maximal cytotoxic concentration (CC50) at 4 days in data set [2] was found to be 16.2 µM.
In the case of `C=CCCN(C(=O)[C@H](Cc1ccccc1)NC(=O)NS(=O)(=O)N[C@@H](Cc1ccccc1)C(=O)N(CC=C)c1ccc(OC)nc1)c1ccc(OC)nc1` [Example 223], the 50% effective concentration (EC50) in data set [1] (setting [3]) turned out to be 1.5 µM. The cytotoxic concentration (CC50) at 4 days in data set [2] was ≥ 25 µM.
Taken in the same sequence, the figures for `CCc1ncc(N(C)C(=O)[C@H](Cc2cc(F)cc(F)c2)NC(=O)c2ccc(F)c(C(=O)N[C@@H](Cc3cc(F)cc(F)c3)C(=O)N(C)c3cnc(CC)nc3)c2)cn1` [Example 206] were 14.5 µM and ≥ 33.3 µM.
Taken in the same sequence, the figures for `COc1ccc(N(C)C(=O)[C@H](Cc2ccccc2)NC(=O)Cc2cccc(CC(=O)N[C@@H](Cc3ccccc3)C(=O)N(C)c3ccc(OC)cc3)c2)cc1` [Example 42] were 0.85 µM and 40.7 µM.
As for `COc1ccc(N(C)C(=O)[C@H](Cc2ccccc2)Nc2ncnc(N[C@@H](Cc3ccccc3)C(=O)N(C)c3ccc(OC)cc3)n2)cc1` [Example 109], the EC50 in data set [1] (setting [3]) came out at 6.87 µM. The compound also registered a CC50 at 4 days in data set [2] of 65.4 µM.
In the case of `Cc1cc(F)cc(N(C)C(=O)[C@H](Cc2ccccc2)NC(=O)NS(=O)(=O)N[C@@H](Cc2ccccc2)C(=O)N(C)c2cc(C)cc(F)c2)c1` [Example 224], in data set [1] (setting [3]), the 50% effective concentration (EC50) was 3.91 µM. Further, the cytotoxic concentration (CC50) at 4 days in data set [2] is 46 µM.
Taken in the same sequence, the figures for `COc1ccc(N(C)C(=O)[C@H](Cc2ccccc2)NC(=O)CC(C)(C)C(=O)N[C@@H](Cc2ccccc2)C(=O)N(C)c2ccc(OC)cc2)cc1` [Example 30] were 4.96 µM and 31.2 µM.
For `CN(C(=O)[C@H](Cc1cc(F)cc(F)c1)Nc1ccnc(N[C@@H](Cc2cc(F)cc(F)c2)C(=O)N(C)c2ccc3scnc3c2)n1)c1ccc2scnc2c1` [Example 146], in data set [1] (setting [3]), the concentration for a half-maximal effect (EC50) was 2.86 µM. The half-maximal cytotoxic concentration (CC50) at 4 days in data set [2] came to 30.6 µM.
Taken in the same sequence, the figures for `CN(C(=O)[C@H](Cc1cc(F)cc(F)c1)NC(=O)c1cccc(C(=O)N[C@@H](Cc2cc(F)cc(F)c2)C(=O)N(C)c2ccc3scnc3c2)c1)c1ccc2scnc2c1` [Example 51] were 0.01 µM and ≥ 100 µM.
In the case of `COc1ccc(N(C)C(=O)[C@H](Cc2ccccc2)NC(=O)Cn2c(=O)n(CC(=O)N[C@@H](Cc3ccccc3)C(=O)N(C)c3ccc(OC)cc3)c3cc([N+](=O)[O-])ccc32)cc1` [Example 87], in data set [1] (setting [3]), the 50% effective concentration (EC50) worked out at 0.09 µM. Further, in data set [2], the CC50 at 4 days is 11.1 µM.
Consider `COc1ccc(N(C)C(=O)[C@H](Cc2ccccc2)NC(=O)Cn2c(=O)n(CC(=O)N[C@@H](Cc3ccccc3)C(=O)N(C)c3ccc(OC)cc3)c3ccccc32)cc1` [Example 37], for which the EC50 in data set [1] (setting [3]) came out at 0.07 µM. In addition, in data set [2], the CC50 at 4 days is 19.9 µM.
On to `COc1ccc(N(C)C(=O)[C@H](Cc2ccccc2)NC(=O)CCSCCC(=O)N[C@@H](Cc2ccccc2)C(=O)N(C)c2ccc(OC)cc2)cc1` [Example 41], for which the EC50 in data set [1] (setting [3]) stood at 0.1 µM. This compound also gave a cytotoxic concentration (CC50) at 4 days in data set [2] of 23 µM.
For `CN(C(=O)[C@H](Cc1cc(F)cc(F)c1)NC(=O)c1cccc(C(=O)N[C@@H](Cc2cc(F)cc(F)c2)C(=O)N(C)c2ccc3scnc3c2)c1Cl)c1ccc2scnc2c1` [Example 82], the EC50 in data set [1] (setting [3]) is 0.07 µM. Moreover, in data set [2], the CC50 at 4 days was ≥ 100 µM.
Taken in the same sequence, the figures for `C=CCN(C(=O)[C@H](Cc1cc(F)cc(F)c1)NC(=O)NS(=O)(=O)N[C@@H](Cc1cc(F)cc(F)c1)C(=O)N(CC=C)c1ccc2nccnc2c1)c1ccc2nccnc2c1` [Example 213] were 8.21 µM and ≥ 100 µM.
Regarding `COc1ccc(N(C)C(=O)[C@H](Cc2ccccc2)NC(=O)c2nc[nH]c2C(=O)N[C@@H](Cc2ccccc2)C(=O)N(C)c2ccc(OC)cc2)cc1` [Example 59], the EC50 in data set [1] (setting [3]) turned out to be 3.34 µM. The same compound had a 50% cytotoxic concentration (CC50) at 4 days in data set [2] of 11 µM.
Taken in the same sequence, the figures for `COc1ccc(N(C)C(=O)[C@H](Cc2cc(F)cc(F)c2)NC(=O)Cn2c(=O)n(CC(=O)N[C@@H](Cc3cc(F)cc(F)c3)C(=O)N(C)c3ccc(OC)cc3)c3cc(Cl)ccc32)cc1` [Example 72] were 0.04 µM and 4.4 µM.
Taken in the same sequence, the figures for `COc1ccc(N(C)C(=O)[C@H](Cc2ccccc2)NC(=O)CC(C)(C)CC(=O)N[C@@H](Cc2ccccc2)C(=O)N(C)c2ccc(OC)cc2)cc1` [Example 77] were 3.98 µM and 9.6 µM.
Turning to `CN(C(=O)[C@H](Cc1cc(F)cc(F)c1)NC(=O)NS(=O)(=O)N[C@@H](Cc1cc(F)cc(F)c1)C(=O)N(C)c1ccc2sc(=O)[nH]c2c1)c1ccc2sc(=O)[nH]c2c1` [Example 175], the concentration giving a half-maximal response (EC50) in data set [1] (setting [3]) came to 0.45 µM. For the same compound, in data set [2], the half-maximal cytotoxic concentration (CC50) at 4 days was ≥ 100 µM.
Taken in the same sequence, the figures for `COc1ccc(N(C)C(=O)[C@H](Cc2ccccc2)NC(=O)Cn2c(=O)c3ccccc3c(=O)n2CC(=O)N[C@@H](Cc2ccccc2)C(=O)N(C)c2ccc(OC)cc2)cc1` [Example 92] were 0.29 µM and 10.1 µM.
On the same counts, the results for `CCN(C(=O)[C@H](Cc1cc(F)cc(F)c1)NC(=O)NS(=O)(=O)N[C@@H](Cc1cc(F)cc(F)c1)C(=O)N(CC)c1ccc2oc(=O)n(CC)c2c1)c1ccc2oc(=O)n(CC)c2c1` [Example 156] are 24.7 µM and ≥ 50 µM.
Taken in the same sequence, the figures for `COc1ccc(N(C)C(=O)[C@H](Cc2ccccc2)NC(=O)c2cccc(S(=O)(=O)N[C@@H](Cc3ccccc3)C(=O)N(C)c3ccc(OC)cc3)c2)cc1` [Example 108] were 0.72 µM and ≥ 100 µM.
On to `COc1ccc(N(C)C(=O)[C@H](Cc2ccccc2)NC(=O)CN2c3ccccc3N(CC(=O)N[C@@H](Cc3ccccc3)C(=O)N(C)c3ccc(OC)cc3)S2(=O)=O)cc1` [Example 27], for which, in data set [1] (setting [3]), the EC50 is 0.04 µM. In addition, the CC50 at 4 days in data set [2] was ≥ 100 µM.
Taken in the same sequence, the figures for `CN(C(=O)[C@H](Cc1cc(F)cc(F)c1)NC(=O)NS(=O)(=O)N[C@@H](Cc1cc(F)cc(F)c1)C(=O)N(C)c1ccc2sc(=O)n(C)c2c1)c1ccc2sc(=O)n(C)c2c1` [Example 237] were 0.27 µM and 71.9 µM.
On the same counts, the results for `CC#CCN(C(=O)[C@H](Cc1cc(F)cc(F)c1)NC(=O)c1cc(F)c(F)cc1C(=O)N[C@@H](Cc1cc(F)cc(F)c1)C(=O)N(CC#CC)c1ccc(OC)cc1)c1ccc(OC)cc1` [Example 234] are 6.83 µM and 95.3 µM.

Source of the values: US20180072997A1, “INHIBITORS OF HUMAN IMMUNODEFICIENCY VIRUS REPLICATION” (ViiV HEATHCARE UK (NO.5) LIMITED, priority 2015, published 2018).
